Assay results: patent publication US6951848B2, “Functionalized heterocycles as modulators of chemokine receptor function and methods of use therefor” (Millennium Pharmaceuticals, Inc.,, priority 2001, dated 2005)
Where a name gives a salt, the structure may show the parent alone.

system: not given; experiment: not given; conditions: not given

melting point	Compound
130 to 134 °C	CCN(CC)CCc1ccc2[nH]c(C)c(C(=O)OCc3ccccc3)c2c1.Cl [Example 72, 5-(2-Diethylamino-ethyl)-2-methyl-1H-indole-3-carboxylic acid benzyl ester hydrochloride]
110 to 116 °C	Cc1[nH]c2ccc(OCCN3CCCC3)cc2c1C(=O)OCc1ccccc1 [Example 69, 2-Methyl-5-(pyrrolidin-1-yl-ethoxy)-1H-indole-3-carboxylic acid benzyl ester]
135 to 140 °C	Cc1[nH]c2ccc(OCCN(C)C)cc2c1C(=O)O[C@@H](C)c1ccccc1 [Example 66, 5-(2-Dimethylamino-ethoxy)-2-methyl-1H-indole-3-carboxylic acid (S)-1-phenyl-ethyl ester]
126 to 127 °C	Cc1[nH]c2ccc(OCCN3CC[C@H](CO)C3)cc2c1C(=O)OCc1ccccc1 [Example 16, 5-[2-((S)-3-Hydroxymethyl-pyrrolidin-1-yl)-ethoxy]-2-methyl-1H -indole-3-carboxylic acid benzyl ester]
181 to 182 °C	Cc1[nH]c2ccc(OCCN3CC(C)(C)C(C)(C)C3)cc2c1C(=O)OCc1ccccc1 [Example 14, 2-Methyl-5-[2-(3,3,4,4-tetramethyl-pyrrolidin-1-yl)-ethoxy]-1H-indole-3-carboxylic acid benzyl ester]
122 to 124 °C	Cc1[nH]c2ccc(CCN(C)C3CCCCC3)cc2c1C(=O)OCc1ccccc1 [Example 58, 5-[2-(Cyclohexyl-methyl-amino)-ethyl]-2-methyl-1H-indole-3-carboxylic acid benzyl ester]
75 to 80 °C	Cc1[nH]c2ccc(OCCN3CCCC3)cc2c1C(=O)OC(C)c1ccccc1.Cl (stereo not drawn)
123 to 125 °C	CCCN(CCC)CCOc1ccc2[nH]c(C)c(C(=O)OCc3ccccc3)c2c1 [Example 18, 5-(2-Dipropylamino-ethoxy)-2-methyl-1H-indole-3-carboxylic acid benzyl ester]
65 to 68 °C	CNCCc1ccc2[nH]c(C)c(C(=O)OCc3ccccc3)c2c1 [Example 61, 2-Methyl-5-(2-methylamino-ethyl)-1H-indole-3-carboxylic acid benzyl ester]
225 to 229 °C (dec.)	Cc1[nH]c2ccc(OCCN3CCNCC3)cc2c1C(=O)OCc1ccccc1 (as salt: hydrochloride) [Example 2, 1-[2-(3-benzyloxycarbonyl-2-methyl-1H-indole-5-yloxy)-ethyl]-piperazin-1-ium; Chloride]
121 to 122 °C	Cc1[nH]c2ccc(OCCN3CCC(C)C3)cc2c1C(=O)OCc1ccccc1 (stereo not drawn) [Example 4, 2-Methyl-5-[2-(3-methyl-pyrrolidin-1-yl)-ethoxy]-1H-indole-3-carboxylic acid benzyl ester]
141 to 142 °C	Cc1[nH]c2ccc(OCCN3CCCC3c3ccccc3)cc2c1C(=O)OCc1ccccc1 (stereo not drawn) [Example 15, 2-Methyl-5-[2-(2-phenyl-pyrrolidin-1-yl)-ethoxy]-1H -indole-3-carboxylic acid benzyl ester]
94 to 98 °C	Cc1[nH]c2ccc(OC(C)C(C)N3CCCC3)cc2c1C(=O)OCc1ccccc1 (stereo not drawn) [Example 70, 2-Methyl-5-(1-methyl-2-pyrrolidin-1-yl-propoxy)-1H-indole-3-carboxylic acid benzyl ester]
76 to 78 °C	Cc1[nH]c2ccc(CCN3CCCC3)cc2c1C(=O)OCc1ccccc1.Cl [Example 56, 2-Methyl-5-(2-pyrrolidin-1-yl-ethyl)-1H-indole-3-carboxylic acid benzyl ester hydrochloride]
74 to 76 °C	CCN(CC)CCOc1ccc2c(c1)c(C(=O)OCc1ccccc1)c(C)n2Cc1ccccc1 [Example 7, 1-Benzyl-5-(2-diethylamino-ethoxy)-2-methyl-1H-indole-3-carboxylic acid benzyl ester]
141 to 142 °C	Cc1[nH]c2ccc(OCCN3CCCCCC3)cc2c1C(=O)OCc1ccccc1 [Example 11, 5-(2-Azepan-1-yl-ethoxy)-2-methyl-1H-indole-3-carboxylic acid benzyl ester]

melting point	Compound
159 to 161 °C	Cc1[nH]c2ccc(CCN3CCCCC3)cc2c1C(=O)OCc1ccccc1 [Example 59, 2-Methyl-5-(2-piperidin-1-yl-ethyl)-1H-indole-3-carboxylic acid benzyl ester]
125 to 126 °C	CCN(CC)CCOc1ccc2[nH]c(C)c(C(=O)OCc3ccccc3)c2c1 [Example 13, 5-(2-Diethylamino-ethoxy)-2-methyl-1H-indole-3-carboxylic acid benzyl ester]
95 to 97 °C	CCN(CC)CCc1ccc2[nH]c(C)c(C(=O)O[C@@H](C)c3ccccc3)c2c1.Cl
260 to 261 °C	Cc1[nH]c2ccc(CN)cc2c1C(=O)OCc1ccccc1.Cl
97 to 100 °C	Cc1[nH]c2ccc(CCNC3CCCCC3)cc2c1C(=O)OCc1ccccc1 [Example 71, 5-(2-Cyclohexylamino-ethyl)-2-methyl-1H-indole-3-carboxylic acid benzyl ester]
143 to 145 °C	Cc1[nH]c2ccc(OCCN3CCN(C)CC3)cc2c1C(=O)OCc1ccccc1 [Example 3, 2-Methyl-5-[2-(4-methyl-piperazin-1-yl)-ethoxy]-1H-indole-3-carboxylic acid benzyl ester]
109 to 111 °C	Cc1[nH]c2ccc(CCN(C)C3CCOCC3)cc2c1C(=O)OCc1ccccc1 [Example 62, 2-Methyl-5-{2-[methyl-(tetrahydro-pyran-4-yl)-amino]-ethyl}-1H-indole-3-carboxylic acid benzyl ester]
73 to 74 °C	CCN(CC)CCOc1ccc2c(c1)c(C(=O)OCc1ccccc1)c(C)n2C [Example 8, 1-Methyl-5-(2-diethylamino-ethoxy)-2-methyl-1H-indole-3-carboxylic acid benzyl ester]
129 to 131 °C	CCC(Oc1ccc2[nH]c(C)c(C(=O)OCc3ccccc3)c2c1)C(=O)N(CC)CC (stereo not drawn) [Example 9, 5-(1-Diethylcarbamoyl-propoxy)-2-methyl-1H-indole-3-carboxylic acid benzyl ester]
106 to 108 °C	CCN(CC)Cc1ccc2[nH]c(C)c(C(=O)OCc3ccccc3)c2c1 [Example 64, 5-Diethylaminomethyl-2-methyl-1H-indole-3-carboxylic acid benzyl ester]
126 to 127 °C	Cc1[nH]c2ccc(OCCN3CCCC3c3cccnc3)cc2c1C(=O)OCc1ccccc1 (stereo not drawn) [Example 17, 2-Methyl-5-[2-(2-pyridin-3-yl-pyrrolidin-1-yl)-ethoxy]-1H-indole-3-carboxylic acid benzyl ester]
45 to 55 °C	Cc1[nH]c2ccc(OCCN3CCOCC3)cc2c1C(=O)OC(C)c1ccccc1.Cl (stereo not drawn)
140 to 141 °C	Cc1[nH]c2ccc(OCCN3CCCCC3)cc2c1C(=O)OCc1ccccc1 [Example 12, 2-Methyl-5-(2-piperidin-1-yl-ethoxy)-1H-indole-3-carboxylic acid benzyl ester]
134 to 135 °C	Cc1[nH]c2ccc(CCN(CC(C)C)CC(C)C)cc2c1C(=O)OCc1ccccc1 [Example 60, 5-(2-Diisobutylamino-ethyl)-2-methyl-1H-indole-3-carboxylic acid benzyl ester]
121 to 123 °C	Cc1[nH]c2ccc(OCCN(C(C)C)C(C)C)cc2c1C(=O)OCc1ccccc1 [Example 6, 5-(2-Diisopropylamino-ethoxy)-2-methyl-1H-indole-3-carboxylic acid benzyl ester]
167 to 168 °C	Cc1[nH]c2ccc(CCN3CCN(C)CC3)cc2c1C(=O)OCc1ccccc1 [Example 57, 2-Methyl-5-[2-(4-methyl-piperazin-1-yl)-ethyl]-1H-indole-3-carboxylic acid benzyl ester]

Compound	melting point
Cc1[nH]c2ccc(OCCN3CCN(C(=O)OC(C)(C)C)CC3)cc2c1C(=O)OCc1ccccc1 [Example 1, 5-[2-(4-tert-Butoxycarbonyl-piperazin-1-yl)-ethoxy]-2-methyl-1H-indole-3-carboxylic acid benzyl ester]	136 to 137 °C
Cc1[nH]c2ccc(OCCCCN3CCCC3)cc2c1C(=O)OCc1ccccc1 [Example 10, 2-Methyl-5-(4-pyrrolidin-1-yl-butoxy)-1H-indole-3-carboxylic acid benzyl ester]	152 to 155 °C

target: T1, CCR-5 (Homo sapiens, UniProt P51681); experiment: 125I-gp120/sCD4/CCR-5 receptor binding assay; conditions: membranes from CCR-5/L 1.2 cells, 3 nM sCD4, 0.1 nM 125I-gp120 (HIV-1 JR-FL); read-out: IC50 for inhibition of binding of sCD-4/GP-120 to CCR-5
T1 construct: expressed in transfected cells; host or cells: L1.2 cells (CCR-5/L1.2 transfectants), membranes
T1 sequence (P51681 whole entry): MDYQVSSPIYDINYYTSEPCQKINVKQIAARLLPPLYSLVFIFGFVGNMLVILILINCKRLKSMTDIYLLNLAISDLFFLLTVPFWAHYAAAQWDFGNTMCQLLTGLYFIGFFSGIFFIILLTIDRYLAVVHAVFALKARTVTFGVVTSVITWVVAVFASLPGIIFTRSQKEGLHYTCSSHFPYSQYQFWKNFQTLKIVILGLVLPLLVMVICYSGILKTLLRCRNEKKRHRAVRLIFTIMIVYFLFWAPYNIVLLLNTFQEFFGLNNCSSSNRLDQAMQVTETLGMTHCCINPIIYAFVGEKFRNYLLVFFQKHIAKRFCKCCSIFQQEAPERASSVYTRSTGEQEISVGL
Procedure: CCR-5 Receptor Binding Assay The compounds of the present invention were evaluated using the following CCR-5 receptor binding assay. The ^125I-gp120/sCD4/CCR-5 binding assay was carried out similarly as described in Wu et al., Nature, 1996;384:179-183. Briefly, the envelope gp120 protein derived from HIV-1 JR-FL (Trkola et al., Nature, 1996;384:184-186), an M-tropic strain, was iodinated using solid phase lactoperoxidase to a specific activity of 20 μCi/μg. For each binding reaction (in a final volume of 100 μL binding buffer [50 mM HEPES, pH 7.5, 1 mM CaCl2, 5 mM MgCl2, and 0.5% BSA]), 25 μL (2.5 μg) of membranes prepared from CCR-5/L 1.2 cells were mixed with 25 μL (3 nM) sCD4, followed by 25 μL (0.1 nM) radio-labeled gp120 in the presence or absence of 25 μL compound dissolved in DMSO (final concentration of DMSO 0.5%). The reactions were incubated at room temperature for 45 to 60 minutes and stopped by transferring the mixture to GFB filter plates, which were then washed 3 to 4 times with binding buffer containing 0.5 M NaCl. The plates were dried and MicroScint scintillation fluid was added before counting. […] The compounds of Examples 56 and 66 had IC50s of about […]. […] Preferred compounds can inhibit the binding of sCD-4/GP-120 to CCR-5 with IC50s of about 10 μM to about 100 μM or about 1 nM to about 10 μM

IC50 [µM]	Compound
1.93 ± 0.32	CCN(CC)CCc1ccc2[nH]c(C)c(C(=O)OCc3ccccc3)c2c1.Cl [Example 72, 5-(2-Diethylamino-ethyl)-2-methyl-1H-indole-3-carboxylic acid benzyl ester hydrochloride]
20.3 ± 2.8	Cc1[nH]c2ccc(OCCN3CCCC3)cc2c1C(=O)OCc1ccccc1 [Example 69, 2-Methyl-5-(pyrrolidin-1-yl-ethoxy)-1H-indole-3-carboxylic acid benzyl ester]
~4.8	Cc1[nH]c2ccc(OCCN(C)C)cc2c1C(=O)O[C@@H](C)c1ccccc1 [Example 66, 5-(2-Dimethylamino-ethoxy)-2-methyl-1H-indole-3-carboxylic acid (S)-1-phenyl-ethyl ester]
5.52 ± 1.1	Cc1[nH]c2ccc(OC(C)C(C)N3CCCC3)cc2c1C(=O)OCc1ccccc1 (stereo not drawn) [Example 70, 2-Methyl-5-(1-methyl-2-pyrrolidin-1-yl-propoxy)-1H-indole-3-carboxylic acid benzyl ester]
~4.8	Cc1[nH]c2ccc(CCN3CCCC3)cc2c1C(=O)OCc1ccccc1.Cl [Example 56, 2-Methyl-5-(2-pyrrolidin-1-yl-ethyl)-1H-indole-3-carboxylic acid benzyl ester hydrochloride]
18.2	CCN(CC)CCOc1ccc2c(c1)c(C(=O)OCc1ccccc1)c(C)n2Cc1ccccc1 [Example 7, 1-Benzyl-5-(2-diethylamino-ethoxy)-2-methyl-1H-indole-3-carboxylic acid benzyl ester]
17.5	Cc1[nH]c2ccc(NCCN3CCCC3)cc2c1C(=O)OCc1ccccc1 [Example 20, 2-Methyl-5-(2-pyrrolidine-1-yl-ethylamino)-1H-indole-3-carboxylic acid benzyl ester]
13.9 ± 1.6	Cc1[nH]c2ccc(CCN(C)C3CCOCC3)cc2c1C(=O)OCc1ccccc1 [Example 62, 2-Methyl-5-{2-[methyl-(tetrahydro-pyran-4-yl)-amino]-ethyl}-1H-indole-3-carboxylic acid benzyl ester]
